Experimental data from patent publication US20040052879A1, “Method for the extraction of pharmaceutically active products from spermatophyte plants, products thus obtained and their use in the medical field, in particular as substances with anti-tumoral activity” (priority 2000, published 2004).
Converted amounts (≈) assume the structure as drawn. Values belong to the compound of their own block, whether it stands above or below them.

Assays:
[1] = tested on: HT-29 cells (colorectal adenocarcinoma); test: Cell growth of HT-29 cells; assay type: cell-based; conditions: until 72 hours
Protocol: (§1) During the experiments a series of cell lines originating from different types of tumors has been used. All cell lines have been grown and kept in a RPMI-1640 medium added with 10% fetal calf serum (FCS) and 1% penicillin-streptomycin. The substances according to the invention have been dissolved in dimethyl-sulfoxide (DMSO) at an initial concentration of 100 mM and added to the cell cultures in the concentrations indicated. DMSO alone has been added to control cultures. The cells placed on a microplate in a concentration of 1×10^5/ml have been incubated with various doses of each substance and for different periods of time. At the end of the treatment cell replication has been evaluated by a cellular count carried out using a Coulter Counter.

[2] = tested on: PAR-MEL cells (malignant melanoma resisting to chemotherapeutic treatments); test: Cellular cycle analysis of PAR-MEL cells by flow cytometry; assay type: cell-based; conditions: after 24 h incubation
Protocol: The cells have been resuspended in a concentration of 1×10^6/ml and incubated for different periods of time and with various doses of each substance. At the end of the incubation period the cells have been fixed in acetone/methanol 1:4, treated with 100 KU/ml of RNase and marked with propydium iodide (50 mcg/ml). The various stages of the cellular cycle have then been analyzed by means of flow cytometry with a cytometer FACscan using a suitable statistic program. As far as the effects on the cellular cycle (FIG. 8) are concerned, after only 24 h of incubation of PAR-MEL cells with C-Res and starting from a dose of 5 mcg/ml, a significant block of the cellular cycle on G1-S/G2M level can be observed, with a consequent increase in the percentage of cells in S stage and at higher doses in G1 stage. Said block remains constant for the following hours.

[3] = tested on: PAR-MEL cells (malignant melanoma resisting to chemotherapeutic treatments); test: Apoptosis of PAR-MEL cells by flow cytofluorometry (PI DNA content); assay type: cell-based; conditions: 40 mcg/ml, 72 h incubation
Protocol: (§2) The cells have been resuspended in a concentration of 1×10^6/ml and incubated for different periods of time and with various doses of each substance. At the end of the incubation period the cells have been fixed in acetone/methanol 1:4, treated with 100 KU/ml of RNase and marked with propydium iodide (50 mcg/ml). The cells have then been analyzed by means of flow cytofluorometry using a cytometer FACscan.

[4] = tested on: HT-29 cells (colorectal adenocarcinoma); test: Apoptosis of HT-29 cells by flow cytofluorometry (PI DNA content); assay type: cell-based; conditions: 5 mcg/ml, all times of incubation (24, 48, 72 h)
Protocol: as §2, with “FACscan. […] For all other doses an increase of the effect related to the time of incubation can be observed.” for “FACscan.”

[5] = Stability of the active agent in culture medium (HPLC/GC quantification); assay type: physicochemical; conditions: for halving time in culture medium: culture medium of ex. 10 (RPMI-1640, 10% FCS); for amount still present at the end of the test: culture medium of ex. 10, 72 h
Protocol: As far as resveratrols are concerned, they can be obtained with two alternative techniques, HPLC or GC. For both techniques quantification is carried out with the internal standard method. The compound we have found to be optimal is trans4-hydroxy-stilbene, commercially available.
For HPLC the reference method with reverse-phase column can be applied, with detection at 310 nm for trans isomers and at 282 for cis isomer (Mattivi F. Solid phase extraction of trans-resveratrol from wines for HPLC analysis. Zeftschrift für Lebensmittel-Untersuchung und Forschung, 1993, 196, 522-525). The instrumental conditions are the same as those described above for viniferine. The coefficient of molar extinction of both glucosides is almost the same as the one of the corresponding aglycones, so that they can be determined as such after carrying out a correction for molecular weights (Mattivi et al. Isolation, characterization, and evolution in red wine vinification of resveratrol monomers, J. Agric. Food Chem., 1995, 43, 7, 1820-1823).
If a preparation for aqueous or hydroalcoholic matrixes is necessary, the injection should be preceded by a pre-purification step on reverse-phase cartridges according to Mattivi F. Solid phase extraction of trans-resveratrol from wines for HPLC analysis. Zeitschrift für Lebensmittel-Untersuchung und Forschung, 1993, 196, 522-525. In addition to what is contained in the aforesaid document, it has been verified that the method is suitable for all monomer stilbenes, both free and glucosides, and that the eluted fraction of ethyl acetate can be dried under a mild flow of nitrogen, in case it is necessary to carry out the exchange in another solvent and/or to further reduce the limits of quantification.
Said techniques can be used for instance to control the stability of the active agent in culture mediums, and therefore to support in vitro experimental models which are going to be described in the following examples. For instance, for the culture means described in ex.
During the experiments a series of cell lines originating from different types of tumors has been used. All cell lines have been grown and kept in a RPMI-1640 medium added with 10% fetal calf serum (FCS) and 1% penicillin-streptomycin.

[6] = tested on: HT-29 cells (colorectal adenocarcinoma); test: Cellular cycle analysis of HT-29 cells by flow cytometry; assay type: cell-based; conditions: only after 48 h incubation
Protocol: The cells have been resuspended in a concentration of 1×10^6/ml and incubated for different periods of time and with various doses of each substance. At the end of the incubation period the cells have been fixed in acetone/methanol 1:4, treated with 100 KU/ml of RNase and marked with propydium iodide (50 mcg/ml). The various stages of the cellular cycle have then been analyzed by means of flow cytometry with a cytometer FACscan using a suitable statistic program. For these cells the effects on the cellular cycle (FIG. 12) are evident only after 48 h of incubation starting from a dose of 10 mcg/ml and consist in a block of the cellular cycle on G1-S/G2M level.

[7] = tested on: PAR-MEL cells (malignant melanoma resisting to chemotherapeutic treatments); test: Cell mortality of PAR-MEL cells; assay type: cell-based; conditions: 40 mcg/ml
Protocol: The cells placed on a microplate in a concentration of 1×10^5/ml have been incubated with various doses of each substance and for different periods of time. At the end of the treatment cell mortality has been evaluated by a cellular count in trypan blue and/or by flow cytometry using a cytometer FACscan (Becton-Dickinson), determining the vitality of unfixed cells which have been marked with propydium iodide (PI). […] Only for the dose of 40 mcg/ml the plateau is reached after only 24 h of incubation.

[8] = tested on: M14 cells (malignant melanoma); test: Cellular cycle analysis of M14 cells by flow cytometry; assay type: cell-based; conditions: for induction of cell accumulation in stage G1/S: 72 h, lowest dose (2.5 mcg/ml)
Protocol: The cells have been resuspended in a concentration of 1×10^6/ml and incubated for different periods of time and with various doses of each substance. At the end of the incubation period the cells have been fixed in acetone/methanol 1:4, treated with 100 KU/ml of RNase and marked with propydium iodide (50 mcg/ml). The various stages of the cellular cycle have then been analyzed by means of flow cytometry with a cytometer FACscan using a suitable statistic program. […] Indeed, after only 24 h of cell incubation with C-Res and starting from a dose of 1.25 mcg/ml, a significant block of the cellular cycle on S/G2M level can be observed, with the consequent increase of the percentage of cells in S stage. Said block remains, at higher doses, constant for the following hours.

[9] = tested on: PAR-MEL cells (malignant melanoma resisting to chemotherapeutic treatments); test: Cell replication of PAR-MEL cells; assay type: cell-based
Protocol: as §1

[10] = tested on: M14 cells (malignant melanoma); test: Apoptosis of M14 cells by flow cytofluorometry (PI DNA content); assay type: cell-based
Protocol: The cells have been resuspended in a concentration of 1×10^6/ml and incubated for different periods of time and with various doses of each substance. At the end of the incubation period the cells have been fixed in acetone/methanol 1:4, treated with 100 KU/ml of RNase and marked with propydium iodide (50 mcg/ml). The cells have then been analyzed by means of flow cytofluorometry using a cytometer FACscan. […] Said effect is indeed particularly significant starting from a dose of 20 mcg/ml and the peak of activity can be observed after 48 h. An activity having a similar course is performed by C-Res on cell mortality (FIG. 3), even though for said parameter the percentages of cells reacting to the action of the drug are extremely higher.

[11] = tested on: M14 cells (malignant melanoma); test: Cell replication of M14 cells (Coulter Counter count); assay type: cell-based; conditions: for IC50: Homo sapiens, 72 h incubation, read-out: concentration inhibiting 50% of cell replication (CI50)
Protocol: as §1, with “Counter. Cells belonging to the M14 tumor line (malignant melanoma) have been incubated for various periods of time with 1.25, 2.5, 5, 10, 20, 40 and 80 mcg/ml of cis-resveratrol (C-Res), or DMSO alone as far as controls are concerned.” for “Counter.”

[12] = tested on: HT-29 cells (colorectal adenocarcinoma); test: Cell mortality of HT-29 cells; assay type: cell-based; conditions: all doses (5-40 mcg/ml)
Protocol: The cells placed on a microplate in a concentration of 1×10^5/ml have been incubated with various doses of each substance and for different periods of time. At the end of the treatment cell mortality has been evaluated by a cellular count in trypan blue and/or by flow cytometry using a cytometer FACscan (Becton-Dickinson), determining the vitality of unfixed cells which have been marked with propydium iodide (PI). […] For all doses the peak of activity is detected after 48 hours of incubation.

halving time in culture medium [5]: 38 h
amount still present at the end of the test [5]: about 25%
Structure (SMILES): Oc1ccc(/C=C\c2cc(O)cc(O)c2)cc1 [C-Res, cis-resveratrol]
inhibition of tumor growth ([1]; 5 and 10 mcg/ml): does not induce any significant effect
inhibition of tumor growth ([1]; 20 mcg/ml): partial
inhibition of tumor growth ([1]; 40 mcg/ml): complete
dose from which significant block of the cellular cycle on G1-S/G2M level is observed [2]: ≥ 5 µg/mL
cells in apoptosis [3]: 50%
apoptosis (peaks of hypodiploidy) [4]: absence of measurable peaks of hypodiploidy
dose from which block of the cellular cycle on G1-S/G2M level is evident [6]: ≥ 10 µg/mL
time at which plateau of cell mortality is reached [7]: 24 h
induction of cell accumulation in stage G1/S [8]: could induce cell accumulation in stage G1/S
dose from which significant block of the cellular cycle on S/G2M level is observed ([8]; after 24 h incubation): ≥ 1.25 µg/mL
effect on cell replication ([9]; dose 20 and 40 mcg/ml): cytotoxic activity
effect on cell replication ([9]; dose range 5 and 10 mcg/ml): significant cytostatic activity
dose from which increase in apoptotic cells is particularly significant [10]: ≥ 20 µg/mL
time of peak of apoptotic activity [10]: 48 h
IC50 [11]: 2.7 µg/mL (≈ 11.8 µM)
effect on cell growth ([11]; all tested doses (1.25-80 mcg/ml)): can inhibit cell growth
effect on cell replication ([11]; dose 40 mcg/ml): cytotoxic activity
effect on cell replication ([11]; dose range 5-20 mcg/ml): significant cytostatic activity
time of peak of activity on cell mortality [12]: 48 h

halving time in culture medium [5]: 28 h
amount still present at the end of the test [5]: not present as such
Structure (SMILES): Oc1ccc(/C=C/c2cc(O)cc(O)c2)cc1 [T-Res, trans-resveratrol, reference compound]
induction of cell accumulation in stage G1/S [8]: not
IC50 [11]: 31.6 µg/mL (≈ 138 µM)
